Test results reported in the NIST ThermoML archive (doi:10.1021/je4007184).
± gives the expanded uncertainty stated by the source.

Columns and labels:
[1] = 298.15 K; 101.33 kPa; Liquid; Pycnometric method
[2] = refractive index (Na D-line) (dimensionless); settings: 298.15 K; 101.33 kPa; Liquid; Standard Abbe refractometry
[3] = Boiling temperature at pressure P; settings: 101 kPa; Liquid; Ebulliometric method (Recirculating still)

Compound | mass density [1] | refractive index [2] | Boiling temperature at pressure P [3]
CC(C)CCO [3-methylbutan-1-ol] | 811.04 ± 0.6 kg/m3 | 1.4155 ± 0.0005 | 131.1 ± 0.4 °C
CCCCCO [pentan-1-ol] | 810.12 ± 0.6 kg/m3 | 1.4078 ± 0.0005 | 137.8 ± 0.4 °C
CCCC(C)O (configuration not stated) [pentan-2-ol] | 806.57 ± 0.61 kg/m3 | 1.4048 ± 0.0005 | 119.1 ± 0.4 °C
CCCOC(C)=O [propyl ethanoate] | 882.8 ± 0.68 kg/m3 | 1.3821 ± 0.0005 | 101.5 ± 0.4 °C
